Test [1] relates to R-FSL-1 (TLR2 agonist)-induced TNF-α and CCL-2 release in RAW macrophages. As to the kind of experiment: R-FSL-1-induced TNF-α and CCL-2 release in RAW macrophages. The settings on record: 10^−7 M. Type of test: cell-based, murine.
Test [2] relates to mice exposed to intense blue light. It is filed as in vivo. Particulars: 289 nmol/kg daily s.c. for 7 days. The text has this:
The acute model of light-induced retinal degeneration uses short exposure to blue light to induce photoreceptor cell death leading to loss of vision (Grimm and Remé, Methods Mol Biol. 2013; 935: 87-97). Mice were exposed mice to intense blue light (wavelength=425 nm; exposure intensity=6000 lux) for five (5) successive days. The treatment was started one day after start of blue-light exposure (D1), for seven (7) successive days of daily subcutaneous (s.c) administration at 289 nmol/kg of test item solutions (MPE-001 and MPE-298). On Day 7, mice were dark adapted for electroretinography (ERG) analysis. […]
ERGs were recorded from wildtype and age matched knockout mice on Espion® ERG Diagnosys machine and a ColorDome® Ganzfeld stimulator (Diagnosys LLC, Lowell, MA). […]
Flash ERG were measured using corneal DTL Plus electrodes (Diagnosys® LLC). […] Scotopic responses were simultaneously recorded from both eyes of the dark-adapted animals at the following increasing light intensities: 0.5, 1.0, 3.0 and 10.0 cd-s/m^2. […] The amplitude and latency of major ERG components were measured with the Espion® software (Diagnosys® LLC). […] The ERG a-wave amplitudes were measured from the baseline to the primary negative peak and the b-wave was measured from the trough of the a-wave to the maximum of the […] positive peak. […]

Test [3] concerns R-FSL-1-induced IL-1β and TNF-α secretion in bone marrow-derived macrophages. As to the kind of experiment: IL-1β and TNF-α secretion in bone marrow-derived macrophages (BMDM) stimulated with R-FSL-1. It is filed as cell-based, mice. The settings on record: murine BMDM primed with LPS, 10^−6 to 10^−11 M. From the text:
Bone marrow-derived macrophages isolation and purification. Bone marrow-derived macrophages (BMDM) were isolated from the tibia and femur of 4-month-old C57Bl/6 mice. Mice were euthanized in a CO2 chamber individually. Tibia and femur were dissected from dead mice after removing the skin and the muscles and stored in cold DMEM before use. The bones are placed in Petri dishes containing sterile PBS and immersed in ice. In a laminar flow of culture, bones are immersed in 70% ethanol for one minute, and then rinsed in sterile PBS. Bones were cut in 2 pieces using sterile forceps and scissors and put in pierced 0.6 mL tubes which were put in 2 mL centrifuge tubes containing 200 μL of DMEM. After 1 min of centrifugation at 6500 RPM, pellets of bone marrow cells were gently resuspended and pooled in a 50 mL tube. Cells were counted and monocytes were purified from the bone marrow cells using the EasySep™ Mouse Monocyte Isolation Kit (StemCell Technologies, #19861) according to the manufacturer instructions. […] Statistical significance of data was analyzed by analysis of variance (ANOVA) with post-hoc comparisons using Dunnett's test with statistical software package (Graph Pad Prism version 7.0). […]

In the case of `C=CCN1CC#CCN(NC(=O)[C@H](C)N)C(=O)N[C@H](Cc2c[nH]c3ccccc23)C(=O)N[C@@H](C)C(=O)N[C@@H](Cc2c[nH]c3ccccc23)C(=O)N[C@H](Cc2ccccc2)C(=O)N[C@H](C(N)=O)CCCC1` [MPE-298], the “inhibitory effect on R-FSL-1-induced CCL-2 release compared with reference standard DBG178 (MPE-001)” value in test [1] was “significantly higher”. In addition, the “subretinal inflammation (immune cell infiltration, notably IL-1β-expressing immune cells, in the retina)” value in test [2] (F4/80-positive cells in RPE flatmounts) is reported as “reduce”. Besides, the “outer nuclear layer (ONL) thickness” value in test [2] (mice exposed to blue light 6000 lux) is recorded as “preserved”. In addition, in test [3], the “secretion of IL-1β induced by R-FSL-1” value was “able to inhibit” and the “secretion of TNF-α induced by R-FSL-1” value is reported as “able to inhibit”.

Values taken from patent publication US11879021B2, “Cyclic peptides and uses thereof” (UNIVERSITÉ DE MONTRÉAL, priority 2016, dated 2024).
